Measured values reported in US20260109707A1, “HETEROBIFUNCTIONAL COMPOUNDS AND METHODS OF TREATING DISEASE” (Halda Therapeutics OpCo. Inc., priority 2022, published 2026).
Like-named read-outs stand apart in the source and are kept apart here.

Tests used:
VCaP cells = assay: Cellular growth inhibition assay for VCaP cells (CellTiter-Glo, 72 hours); assay type: cell-based, human
Experimental: VCaP cells were purchased from American Type Cell Culture (ATCC Cat #CRL2876) and then seeded on poly-D-lysine coated, black clear-bottom 384-well plates at 5000/well in 25 μL Dulbecco's Modified Eagle Medium (DMEM) supplemented with 10% w/w Fetal bovine serum (FBS) and 1% w/w Pen-Strep. Pen-Strep is a commercially available mixture of penicillin G and streptomycin, which is used in mammalian cell culture media to prevent bacterial contamination. Dulbecco's Modified Eagle Medium (DMEM) supplemented with 10% w/w fetal bovine serum (FBS) and 1% w/w Pen-Strep is herein referred to as Treatment Medium. Following seeding of cells in the plates, the plates were spun at 300×g for 30 seconds, then equilibrated to room temperature for 30 minutes, and then deposited in a humidified tissue culture incubator maintained at 37° C. with 5% C0-2.
(§1) At 24 hours after seeding of the cells, dilutions of test compound were prepared in DMSO and dissolved in Treatment Medium, to achieve a final DMSO concentration of 0.5% w/w, thereby providing the Test Compound Solution. A 25 μL aliquot of the Test Compound Solution was added to cells in the well plates. An equal volume of a solution containing DMSO and Treatment Medium was used as a negative control. Following treatment of cells with Test Compound Solution or said equal volume of a solution containing DMSO and Treatment Medium, the plates were spun at 300×g for 30 seconds, and then left in an incubator for 72 hours.
(§2) At the end of the treatment duration, cell viability was quantified with CellTiter-Glo 2.0 reagent (Promega Cat #G9243). For this purpose, plates were equilibrated to room temperature for 30 minutes, and then 25 μL of CellTiter-Glo 2.0 reagent was added to cells in the plate wells. Plates were then agitated on a shaker for two minutes at 500 rpm and subsequently incubated at room temperature for 10 minutes. Following incubation, the plates were spun at 3000×g for 30 seconds, then sealed with an optical adhesive cover, and luminescence readings were measured with an EnVision Plate Reader.
(§3) Data was normalized using zero luminescence for baseline. A four-parameter non-linear regression curve fit was applied to dose-response data in GraphPad Prism data analysis software to determine the half-maximal growth inhibitory concentration (GI50) for each test compound.

[1] = system: T-Rex 293 cell line SC3 cells having increased expression of androgen receptor protein due to exposure to doxycycline; assay: Cellular growth inhibition assay, T-Rex 293 SC3 cells with doxycycline (CellTiter-Glo, 72 hours); assay type: cell-based; details: T-Rex 293 SC3 cells with increased androgen receptor expression due to doxycycline (10 ng/mL)
Experimental: (§4) The following types of cells were prepared for this experiment: (i) a T-Rex 293 cell line having increased expression of androgen receptor protein due to exposure to doxycycline and (ii) a T-Rex 293 cell line lacking increased expression of androgen receptor protein. Ability of the test compounds to inhibit proliferation of the foregoing cell types was evaluated according to the procedures set forth below.
(§5) The doxycycline-inducible androgen receptor protein expressing cell line was established using the following protocol: T-Rex 293 cells were purchased from Invitrogen (Cat #R71007) and transfected using Lipofectamine 2000 with the wild-type androgen receptor protein sequence cloned into the pcDNA4/TO vector. Transfected cells were selected using 400 μg/mL Zeocin (Invitrogen Cat #R25001). Following selection, single clones were raised and maintained in Dulbecco's Modified Eagle Medium (DMEM) supplemented with 10% w/w Tetracycline-free fetal bovine serum (FBS) and 250 μg/mL Zeocin. Clones were analyzed for expression of androgen receptor protein in the presence and absence of 10 ng/mL doxycycline (Sigma Cat #D9891), and a single doxycycline-inducible clone (hereinafter “SC3”) was selected for use in downstream assays.
(§6) The SC3 cells were seeded on poly-D-lysine coated, black clear-bottom 384-well plates at 2500/well, in 25 μL Phenol Red Free Dulbecco's Modified Eagle Medium (DMEM) supplemented with 10% w/w charcoal-dextran treated fetal bovine serum (FBS) and 1% w/w pen-strep, with or without 10 ng/mL doxycycline. Pen-Strep is a commercially available mixture of penicillin G and streptomycin, which is used in mammalian cell culture media to prevent bacterial contamination. Phenol Red Free Dulbecco's Modified Eagle Medium (DMEM) supplemented with 10% w/w charcoal-dextran treated fetal bovine serum (FBS) and 1% w/w pen-strep, with or without 10 ng/mL doxycycline is herein referred to as Treatment Medium. Following seeding of cells in the plates, the plates were spun at 300×g for 30 seconds, then equilibrated to room temperature for 30 minutes, and then deposited in a humidified tissue culture incubator maintained at 37° C. with 5% CO2.
as §1, §2, §3

[2] = system: T-Rex 293 cell line SC3 cells lacking increased expression of androgen receptor protein; assay: Cellular growth inhibition assay, T-Rex 293 SC3 cells without doxycycline (CellTiter-Glo, 72 hours); assay type: cell-based; details: T-Rex 293 cell line SC3 cells not exposed to doxycycline (lacking increased androgen receptor expression)
Experimental: as §4, §5, §6, §1, §2, §3

Row | Compound | GI50 (VCaP cells) [µM] | GI50 (VCaP cells; Homo sapiens, VCaP, 72 h) [µM] | GI50 [1] [µM] | GI50 [2] [µM] | GI50 ([1]; 72 h) [µM] | GI50 ([2]; 72 h) [µM]
1 | Cc1sc2c(c1C)C(c1ccc(CC3CCC4(CCCN(c5ccc(C(=O)N[C@H]6CC[C@H](Oc7ccc(C#N)c(Cl)c7)CC6)nn5)C4)C3)cc1)=N[C@@H](C)c1nnc(C)n1-2 (some centres unmarked) [I-584] | 1.5 to 3 |  | < 0.5 | < 0.5 |  | 
2 | Cc1sc2c(c1C)C(c1ccc(CC3CCC4(C3)CN(c3ccc(C(=O)N[C@H]5CC[C@H](Oc6ccc(C#N)c(Cl)c6)CC5)nn3)CCO4)cc1)=N[C@@H](C)c1nnc(C)n1-2 (some centres unmarked) [I-578] | 0.5 to 1.5 |  |  | > 3 | < 0.5 | 
3 | Cc1sc2c(c1C)C(c1ccc(C3CCC4(CC3)CCN(c3ccc(C(=O)N[C@H]5CC[C@H](Oc6ccc(C#N)c(Cl)c6)CC5)nn3)C4)nc1)=NC1(CC1)c1nnc(C)n1-2 (some centres unmarked) [I-607] | > 3 |  |  | > 3 | < 0.5 | 
4 | Cc1sc2c(c1C)C(c1ccc(C3CCC4(CCN(c5ccc(C(=O)N[C@H]6CC[C@H](Oc7ccc(C#N)c(Cl)c7)CC6)nn5)CC4)C3)cc1)=NC1(CC1)c1nnc(C)n1-2 (some centres unmarked) [I-520] | < 0.5 |  | < 0.5 | > 3 |  | 
5 | Cc1sc2c(c1C)C(c1ccc(OC3CCC4(CCCN(c5ccc(C(=O)N[C@H]6CC[C@H](Oc7ccc(C#N)c(Cl)c7)CC6)nn5)C4)C3)cc1)=NC1(CC1)c1nnc(C)n1-2 (some centres unmarked) [I-526] | < 0.5 |  | < 0.5 | 0.5 to 1.5 |  | 
6 | Cc1sc2c(c1C)C(c1ccc(OCC3CC4(CCCN(c5ccc(C(=O)N[C@H]6CC[C@H](Oc7ccc(C#N)c(Cl)c7)CC6)nn5)C4)C3)cn1)=N[C@@H](C)c1nnc(C)n1-2 (some centres unmarked) [I-482] |  | < 0.5 |  |  | < 0.5 | < 0.5
7 | Cc1sc2c(c1C)C(c1ccc(OCC3CC4(CCCN(c5ccc(C(=O)N[C@H]6CC[C@H](Oc7ccc(C#N)c(Cl)c7)CC6)nn5)C4)C3)cc1)=NC1(CC1)c1nnc(C)n1-2 (some centres unmarked) [I-471] | 1.5 to 3 |  | < 0.5 | > 3 |  | 
8 | Cc1sc2c(c1C)C(c1ccc(COC3CCC4(CCCN(c5ccc(C(=O)N[C@H]6CC[C@H](Oc7ccc(C#N)c(Cl)c7)CC6)nn5)C4)C3)cc1)=N[C@@H](C)c1nnc(C)n1-2 (some centres unmarked) [I-513] | 0.5 to 1.5 |  | < 0.5 |  |  | < 0.5
9 | Cc1sc2c(c1C)C(c1ccc(N3CC(C4CCN(c5ccc(C(=O)N[C@H]6CC[C@H](Oc7ccc(C#N)c(Cl)c7)CC6)nn5)C4)C3)cc1)=NC1(CC1)c1nnc(C)n1-2 (some centres unmarked) [I-551] | < 0.5 |  | < 0.5 | > 3 |  | 
10 | Cc1sc2c(c1C)C(c1ccc(N3CCC(CCc4ccc(C(=O)N[C@H]5CC[C@H](Oc6ccc(C#N)c(Cl)c6)CC5)nn4)CC3)cc1)=N[C@@H](Cc1ncco1)c1nnc(C)n1-2 [I-467] |  | < 0.5 |  |  | < 0.5 | < 0.5
11 | Cc1sc2c(c1C)C(c1ccc(OCC3CC4(CCCN(c5ccc(C(=O)N[C@H]6CC[C@H](Oc7ccc(C#N)c(Cl)c7)CC6)nn5)C4)C3)cc1)=NCc1nnc(C)n1-2 (some centres unmarked) [I-447] | > 3 |  | < 0.5 | > 3 |  | 
12 | Cc1sc2c(c1C)C(c1ccc(N3CC(C4CCN(c5ccc(C(=O)N[C@H]6CC[C@H](Oc7ccc(C#N)c(Cl)c7)CC6)nn5)C4)C3)cc1)=N[C@@H](C)c1nnc(C)n1-2 (some centres unmarked) [I-556] | < 0.5 |  | < 0.5 | < 0.5 |  | 
13 | Cc1sc2c(c1C)C(c1ccc(C#CC3CC4(CCCN(c5ccc(C(=O)N[C@H]6CC[C@H](Oc7ccc(C#N)c(Cl)c7)CC6)nn5)C4)C3)cc1)=NC1(CC1)c1nnc(C)n1-2 (some centres unmarked) [I-445] |  | < 0.5 |  |  |  | > 3
14 | COC[C@@H]1N=C(c2ccc(C3CCC4(CC3)CCN(c3ccc(C(=O)N[C@H]5CC[C@H](Oc6ccc(C#N)c(Cl)c6)CC5)nn3)C4)cc2)c2c(sc(C)c2C)-n2c(C)nnc21 (some centres unmarked) [I-601] |  | < 0.5 |  |  | < 0.5 | 
15 | Cc1sc2c(c1C)C(c1ccc(CC3CC(OC4CCN(c5ccc(C(=O)NC6CCC(Oc7ccc(C#N)c(Cl)c7)CC6)nn5)CC4)C3)cc1)=NC(C)c1nnc(C)n1-2 (centres unmarked) [I-588] |  | < 0.5 |  |  |  | 
16 | Cc1sc2c(c1C)C(c1ccc(N3CCC4(CCN(c5ccc(C(=O)N[C@H]6CC[C@H](Oc7ccc(C#N)c(Cl)c7)CC6)nn5)C4)C3)cc1)=N[C@@H](C)c1nnc(C)n1-2 (some centres unmarked) [I-512] |  | < 0.5 |  |  |  | < 0.5

Now from value to compound, other results behind:

Row | GI50 (VCaP cells) [µM] | GI50 (VCaP cells; Homo sapiens, VCaP, 72 h) [µM] | Compound | GI50 [1] [µM] | GI50 [2] [µM] | GI50 ([1]; 72 h) [µM] | GI50 ([2]; 72 h) [µM]
17 | > 3 |  | Cc1sc2c(c1C)C(c1ccccc1OC1CC3(CCCN(c4ccc(C(=O)N[C@H]5CC[C@H](Oc6ccc(C#N)c(Cl)c6)CC5)nn4)C3)C1)=N[C@@H](C)c1nnc(C)n1-2 (some centres unmarked) [I-717] | > 3 | > 3 |  | 
18 | < 0.5 |  | Cc1sc2c(c1C)C(c1ccc(OCC3CCC4(C3)CN(c3ccc(C(=O)N[C@H]5CC[C@H](Oc6ccc(C#N)c(Cl)c6)CC5)nn3)CCO4)cc1)=N[C@@H](C)c1nnc(C)n1-2 (some centres unmarked) [I-668] | < 0.5 | < 0.5 |  | 
19 |  | < 0.5 | Cc1sc2c(c1C)C(c1ccc(C3CCC(CC4CCN(c5ccc(C(=O)N[C@H]6CC[C@H](Oc7ccc(C#N)c(Cl)c7)CC6)nn5)CC4)CC3)cc1)=NC1(CC1)c1nnc(C)n1-2 (some centres unmarked) [I-756] |  | > 3 | < 0.5 | 
20 | < 0.5 |  | COCC[C@@H]1N=C(c2ccc(C3CCC4(CC3)CCN(c3ccc(C(=O)N[C@H]5CC[C@H](Oc6ccc(C#N)c(Cl)c6)CC5)nn3)C4)cc2)c2c(sc(C)c2C)-n2c(C)nnc21 (single isomer, unassigned) [I-618] | < 0.5 | < 0.5 |  | 
21 |  | < 0.5 | Cc1sc2c(c1C)C(c1ccc(N3CCC(N4CCN(c5ncc(C(=O)N[C@H]6CC[C@H](Oc7ccc(C#N)c(Cl)c7)CC6)cn5)CC4)CC3)cc1)=NC(Cc1ncco1)c1nnc(C)n1-2 (some centres unmarked) [I-792] |  |  | < 0.5 | < 0.5
22 |  | < 0.5 | Cc1sc2c(c1C)C(c1ccc(N3C[C@@H]4CN(c5ccc(C(=O)N[C@H]6CC[C@H](Oc7ccc(C#N)c(Cl)c7)CC6)nn5)C[C@H]4C3)cc1)=N[C@@H](C)c1nnc(C)n1-2 [I-677] |  |  | < 0.5 | 
23 |  | < 0.5 | Cc1sc2c(c1C)C(c1cccc(OC3CC4(CCN(c5ccc(C(=O)N[C@H]6CC[C@H](Oc7ccc(C#N)c(Cl)c7)CC6)nn5)CC4)C3)c1)=N[C@@H](C)c1nnc(C)n1-2 [I-648] |  |  | < 0.5 | 0.5 to 1.5
24 |  | < 0.5 | Cc1sc2c(c1C)C(c1ccccc1OC1CCC3(CC1)CCN(c1ccc(C(=O)N[C@H]4CC[C@H](Oc5ccc(C#N)c(Cl)c5)CC4)nn1)C3)=N[C@@H](C)c1nnc(C)n1-2 (some centres unmarked) [I-752] |  |  | < 0.5 | < 0.5
25 |  | < 0.5 | CC[C@@H]1N=C(c2ccc(C3CCC4(CCCN(c5ccc(C(=O)N[C@H]6CC[C@H](Oc7ccc(C#N)c(Cl)c7)CC6)nn5)C4)CC3)cc2)c2c(sc(C)c2C)-n2c(C)nnc21 (some centres unmarked) [I-652] |  |  | < 0.5 | > 3
26 |  | < 0.5 | CC[C@@H]1N=C(c2ccc(N3CC4(CC(CCc5ccc(C(=O)N[C@H]6CC[C@H](Oc7ccc(C#N)c(Cl)c7)CC6)nn5)C4)C3)cc2)c2c(sc(C)c2C)-n2c(C)nnc21 [I-611] |  |  | < 0.5 | > 3
27 |  | < 0.5 | COC[C@@H]1N=C(c2ccc(OC3CC4(CCCN(c5ccc(C(=O)N[C@H]6CC[C@H](Oc7ccc(C#N)c(Cl)c7)CC6)nn5)C4)C3)cc2)c2c(sc(C)c2C)-n2c(C)nnc21 (some centres unmarked) [I-693] |  |  |  | < 0.5
